The nature of data set [1]: Microsomal stability in mouse liver microsomes assessed as half life at 1 uM measured upto 120 mins in presence of NADPH by LC-MS analysis. The data set is classed as ADME, Microsome. On the technique in general: Liver microsomes are vesicles of endoplasmic reticulum, rich in cytochrome P450 enzymes.
The nature of data set [2]: Acute toxicity in BALB/c mouse assessed as effect on spleen at 400 mg/kg, po measured on day 14 by H and E staining based assay. In kind it is organism-based. To be noted: in vivo, 336 h, time 14 day.
The next data set has as its system HEL. Nature of the data set: Antiproliferative activity against human HEL cells assessed as cell growth inhibition incubated for 96 hrs by MTT assay. In kind it is functional, cell-based.
Data set [3] in a line: Microsomal stability in rat liver microsomes assessed as half life at 1 uM measured upto 120 mins in presence of NADPH by LC-MS analysis. In kind it is ADME, Microsome.
Data set [4] can be described thus: Acute toxicity in BALB/c mouse assessed as effect on kidney at 400 mg/kg, po measured on day 14 by H and E staining based assay. In kind it is organism-based. To be noted: in vivo, 336 h, time 14 day.
Data set [5] has as its system Mus musculus. The experiment in a line: Toxicity in NOD-SCID mouse xenografted with human Raji cells assessed as mortality at 40 mg/kg, po administered for 25 days. To be noted: in vivo, 600 h, time 25 day. In kind it is organism-based.
A short description of data set [6]: Microsomal stability in human liver microsomes assessed as half life at 1 uM measured upto 120 mins in presence of NADPH by LC-MS analysis. The data set is classed as ADME, Microsome.
For data set [7], the system named is Raji. The experiment in a line: Antiproliferative activity against human Raji cells assessed as cell growth inhibition at 0.06 uM preincubated with uridine for 24 hrs followed by compound addition and measured after 72 hrs by MTT assay. In kind it is functional. Set-up: scale not given: the % may be the effect or the level left.
Data set [8] in a line: Half life in Sprague-Dawley rat at 15 mg/kg, po measured after 48 hrs by LC-MS analysis. The data set is classed as ADME, organism-based. The settings on record: in vivo.
In data set [9] the test system is Raji. The experiment in a line: Antitumor activity against human Raji cells xenografted in NOD-SCID mouse assessed as tumor growth inhibition at 15 mg/kg, po administered for 25 days. The data set is classed as functional. To be noted: 600 h, time 25 day, read-out: TGI. For orientation: A xenograft is tissue or cells of one species grown in another, often human tumour cells in immunodeficient mice.

The nature of data set [10]: Drug distribution in NOD-SCID mouse kidney at 40 mg/kg, po administered for 25 days by LC-MS analysis. In kind it is ADME, organism-based. To be noted: in vivo, 600 h, time 25 day.
The subject of data set [11] is Mus musculus. Nature of the data set: Toxicity in NOD-SCID mouse xenografted with human Raji cells assessed as change in AST level at 40 mg/kg, po administered for 25 days. The data set is classed as organism-based. The settings on record: in vivo, 600 h, time 25 day.

Molecules are shown by their SMILES.

We go through 1 compound from ChEMBL document CHEMBL5053556, “Design, Synthesis, and Biological Evaluation of a Novel Series of Teriflunomide Derivatives as Potent Human Dihydroorotate Dehydrogenase Inhibitors for Malignancy Treatment” (J Med Chem, 2021).

As a reminder, the half-life is the time in which the quantity being followed falls by half. As a reminder, the IC50 is the concentration that gives 50% inhibition.

Turning to `C/C(O)=C(\C#N)C(=O)Nc1cc(O[C@@H](C)C(F)(F)F)c(C(=O)Nc2c(F)cccc2F)cc1F`, the half-life at 1 µM in data set [1] amounted to 8.25 h; in [3], 1.43 h; in data set [6], 23.1 h. For the same compound, the Activity entry is reported as “Non-Toxic” in [2]; “Non-Toxic” in data set [4]; “Non-Toxic” in the data set on Mus musculus [5]; 3.3% with Raji [7]; “Non-Toxic” with Mus musculus [11]. In the data set on HEL, the half-inhibitory concentration (IC50) is 20 nM. The half-life in data set [8] is 10.1 h. Moreover, the inhibition in vivo at 15 mg/kg in the data set with Raji [9] worked out at 72.2%. Also, the Drug uptake result in data set [10] is given as “Active”.
